Measured values reported in article PMC6563031, “Polyketides from the Mangrove-Derived Endophytic Fungus Cladosporium cladosporioides” (Marine Drugs, 2019).
Values after ≈ are worked out from the molar mass of the structure shown. Like-named read-outs stand apart in the source and are kept apart here.

How the values were obtained:
[1] = tested on: F. oxysporum f. sp. cucumerinum QDAU-8; assay: Antimicrobial 96-well microtiter plate assay, F. oxysporum f. sp. cucumerinum; format: cell-based, Fusarium oxysporum f. sp. cucumerinum; details: amphotericin B as positive control
[2] = tested on: Bipolaris sorokiniana QDAU-5; assay: Antimicrobial 96-well microtiter plate assay, B. sorokiniana; format: cell-based
[3] = tested on: Glomerella cingulate QDAU-12; assay: Antimicrobial 96-well microtiter plate assay, G. cingulate; format: cell-based; details: amphotericin B as positive control
[4] = tested on: Pseudomonas aeruginosa QDIO-4; assay: Antimicrobial 96-well microtiter plate assay, P. aeruginosa; format: cell-based; details: amphotericin B as positive control (as footnoted)
[5] = tested on: Edwardsiella ictarda QDIO-9; assay: Antimicrobial 96-well microtiter plate assay, E. ictarda; format: cell-based; details: chloramphenicol as positive control
[6] = tested on: E. tarda QDIO-2; assay: Antimicrobial 96-well microtiter plate assay, E. tarda; format: cell-based, Edwardsiella tarda
[7] = tested on: Staphylococcus aureus EMBLC-2; assay: Antimicrobial 96-well microtiter plate assay, S. aureus; format: cell-based
[8] = tested on: Escherichia coli EMBLC-1; assay: Antimicrobial 96-well microtiter plate assay, E. coli; format: cell-based
[9] = Fusarium oxysporum, read-out: MIC
[10] = Bipolaris sorokiniana, QDAU5, amphotericin B as positive control, read-out: MIC
[11] = Pseudomonas aeruginosa, QDIO4, P. aeruginosa, read-out: MIC
[12] = Edwardsiella, QDIO9, E. ictarda, read-out: MIC
[13] = Edwardsiella tarda, QDIO2, chloramphenicol as positive control, read-out: MIC
[14] = Staphylococcus aureus, EMBLC2, chloramphenicol as positive control, read-out: MIC
[15] = Escherichia coli, EMBLC1, chloramphenicol as positive control, read-out: MIC
[16] = chloramphenicol as positive control

Row | SMILES | MIC [1, 9] | MIC [2, 10] | MIC ([3]; read-out: MIC) | MIC [4, 11] | MIC [5, 12] | MIC [6, 13] | MIC [7, 14] | MIC [8, 15] | MIC [3] | MIC ([5]; E. ictarda) | MIC [1] | MIC ([2]; amphotericin B as positive control) | MIC [6, 16] | MIC [7, 16] | MIC ([4]; P. aeruginosa) | MIC [8, 16]
1 | C[C@@H]1[C@H](O)[C@@H](C)/C=C/C=C/C=C/C=C/C=C/C=C/C=C/[C@H](O[C@@H]2O[C@H](C)[C@@H](O)[C@H](N)[C@@H]2O)C[C@@H]2O[C@](O)(C[C@@H](O)C[C@@H](O)[C@H](O)CC[C@@H](O)C[C@@H](O)CC(=O)O[C@H]1C)C[C@H](O)[C@H]2C(=O)O [Amphotericin B, reference compound] | 0.5 µg/mL (≈ 0.541 µM) | 0.5 µg/mL (≈ 0.541 µM) | 0.5 µg/mL (≈ 0.541 µM) | 2 µg/mL (≈ 2.16 µM) | – | – | – | – | – | – | – | – | – | – | – | –
2 | O=C(N[C@H](CO)[C@H](O)c1ccc([N+](=O)[O-])cc1)C(Cl)Cl [Chloramphenicol, reference compound] | – | – | – | – | 0.5 µg/mL (≈ 1.55 µM) | 0.5 µg/mL (≈ 1.55 µM) | 1 µg/mL (≈ 3.09 µM) | 2 µg/mL (≈ 6.19 µM) | – | – | – | – | – | – | – | –
3 | CC1CC=CCCC(O)CCCC(=O)O1 (stereo not drawn) [Compound 1, 5R-hydroxyrecifeiolide] | > 64 µg/mL | > 64 µg/mL | – | 32 µg/mL (≈ 151 µM) | 32 µg/mL (≈ 151 µM) | > 64 µg/mL | > 64 µg/mL | > 64 µg/mL | – ((–) = MIC > 64 μg/mL) | – | – | – | – | – | – | –
4 | CC1CC=CCCC(O)CCCC(=O)O1 (stereo not drawn) [Compound 2, 5S-hydroxyrecifeiolide] | – | – | – | – | – | – | – | – | 16 µg/mL (≈ 75.4 µM) | – ((–) = MIC > 64 μg/mL) | – ((–) = MIC > 64 μg/mL) | – ((–) = MIC > 64 μg/mL) | – ((–) = MIC > 64 μg/mL) | – ((–) = MIC > 64 μg/mL) | – ((–) = MIC > 64 μg/mL) | – ((–) = MIC > 64 μg/mL)
5 | CC(O)CCCCCCC1OC(=O)CC1O (stereo not drawn) [Compound 3, ent-cladospolide F] | > 64 µg/mL | > 64 µg/mL | > 64 µg/mL | 64 µg/mL (≈ 278 µM) | 16 µg/mL (≈ 69.5 µM) | > 64 µg/mL | 8 µg/mL (≈ 34.7 µM) | > 64 µg/mL | – | – | – | – | – | – | – | –
6 | CC(=O)OC(C)CCCCCCC1OC(=O)CC1O (centres unmarked) [Compound 4, cladospolide G] | 1 µg/mL (≈ 3.67 µM) | 32 µg/mL (≈ 117 µM) | 1 µg/mL (≈ 3.67 µM) | > 64 µg/mL | > 64 µg/mL | > 64 µg/mL | > 64 µg/mL | 32 µg/mL (≈ 117 µM) | – | – | – | – | – | – | – | –
7 | CC(O)CCCCCC(O)C1C=CC(=O)O1 (centres unmarked) [Compound 6, iso-cladospolide B] | > 64 µg/mL | > 64 µg/mL | 64 µg/mL (≈ 280 µM) | > 64 µg/mL | 16 µg/mL (≈ 70.1 µM) | 32 µg/mL (≈ 140 µM) | > 64 µg/mL | 32 µg/mL (≈ 140 µM) | – | – | – | – | – | – | – | –
8 | C[C@H]1CCCCC[C@H](O)C(=O)[C@H](O)CC(=O)O1 [Compound 7, pandangolide 1] | > 64 µg/mL | > 64 µg/mL | 1 µg/mL (≈ 4.09 µM) | 32 µg/mL (≈ 131 µM) | 4 µg/mL (≈ 16.4 µM) | > 64 µg/mL | 32 µg/mL (≈ 131 µM) | > 64 µg/mL | – | – | – | – | – | – | – | –
